The test system of test [1] is Plants containing the new EPSPS gene. Put plainly: Herbicide bioassay on plants containing the new EPSPS gene. As to conditions: rice plants from Agrobacterium-transformed calli. The class given is in vivo. An excerpt: These vectors were transferred into Agrobacterium for transforming calli of rice. Plants containing the new EPSPS gene were obtained.
Test [2] deals with wild-type Jinjing 818. Put plainly: Herbicide resistance test, T0 generation, spray application: wild-type control. The class given is in vivo, rice. As to conditions: 2, 4, 8 and 32 g a.i./mu. The protocol: (§1) The transformation seedlings of T0 generation identified as doubling event positive were transplanted into large plastic buckets in the greenhouse for expanding propagation to obtain seeds of T1 generation. After the seedlings began to tiller, the tillers were taken from vigorously growing strains, and planted in the same pots with the tillers of the wild-type control varieties at the same growth period. After the plant height reached about 20 cm, the herbicide resistance test was conducted. The herbicide used was Shuangzuocaotong (CAS No. 1622908-18-2) produced by our company, and its field dosage was usually 4 grams of active ingredients per mu (4 g a.i./mu). In this experiment, Shuangzuocaotong was applied at a dosage gradient of 2 g a.i./mu, 4 g a.i./mu, 8 g a.i./mu and 32 g a.i./muwith a walk-in spray tower.

Test [3] deals with QY2091 T0 generation HPPD gene doubling strain. Put plainly: Herbicide resistance test, T0 generation, spray application: HPPD doubling strains. The class given is in vivo, rice. As to conditions: for phenotype of HPPD doubling event strains after application: 2, 4, 8 and 32 g a.i./mu. The protocol:
as §1

In test [4] the test system is wild-type Jinjing 818. Put plainly: Herbicide resistance test at seedling stage, germination on 1/2 MS medium with herbicide: wild-type control. The class given is in vivo, rice. The note with it: 1.2 μM in 1/2 MS medium, 10 days of cultivation in light. The protocol:
(§2) The herbicide resistance of the T1 generation of the QY2091 HPPD doubled strain was tested at the seedling stage. After the T1 generation seeds were subjected to surface disinfection, they germinated on ½ MS medium containing 1.2 μM Shuangzuocaotong, and cultivated at 28° C., 16 hours light/8 hours dark, in which wild-type Jinjing 818 was used as a control.

Test [5] deals with T1 generation of the QY2091 HPPD doubled strain. Put plainly: Herbicide resistance test at seedling stage, germination on 1/2 MS medium with herbicide: T1 of HPPD doubled strain. The class given is in vivo, rice. As to conditions: 1.2 μM in 1/2 MS medium, 10 days; lines QY2091-7, 13, 20, 22. The method, then:
as §2

In test [6] the test system is wild-type Huaidao No. 5. Put plainly: PPO inhibitory herbicide resistance test, T0 generation, spray application: wild-type control. The class given is in vivo, rice. As to conditions: 0.18, 0.4 and 0.6 g ai/mu. From the text: (§3) Transformation seedlings of QY2234 T0 generation identified as inversion event-positive were transplanted into large plastic buckets in the greenhouse to grow seeds of T1 generation. There were a large number of positive seedlings, so some T0 seedlings and wild-type control lines with similar growth period and status were selected. When the plant height reached about 20 cm, the herbicide resistance test was directly carried out. The herbicide used was a high-efficiency PPO inhibitory herbicide [drawing 1] produced by the company (code 2081, see […] Patent Application for Invention No. 202010281666.4). In this experiment, the herbicide was applied at the gradients of three levels, namely 0.18, 0.4, and 0.6 g ai/mu, by a walk-in type spray tower.

Test [7] concerns QY2234 T0 generation PPO1 inversion strain. Put plainly: PPO inhibitory herbicide resistance test, T0 generation, spray application: PPO1 inversion lines. The class given is in vivo, rice.
Source text: as §3

In test [8] the test system is wild-type Huaidao No. 5. As to the kind of experiment: Herbicide resistance test of T1 generation seedlings, spraying: wild-type control. The class given is in vivo, rice. The note with it: 5 days after application. The protocol:
(§4) The herbicide resistance test was performed on the T1 generation of the QY2234/H5-851 PPO1 inversion lines at seedling stage. The wild-type Huaidao No. 5 was used as a control, and planted simultaneously with the T1 generation seeds of the inversion lines. When the seedlings reached a plant height of 15 cm, 2081 was applied by spraying at four levels of 0.3, 0.6, 0.9 and 1.2 g a.i./mu. The culture conditions were 28° C., with 16 hours of light and 8 hours of darkness.

The test system of test [9] is QY2234/H5-851 T1 seedlings. As to the kind of experiment: Herbicide resistance test of T1 generation seedlings, spraying: PPO1 inversion line. The class given is in vivo, rice. As to conditions: 5 days after application. The protocol:
as §4

Setting [10] is: T0 generation, versus wild type.

SMILES strings stand for the structures.

Take `O=C(O)CNCP(=O)(O)O` [glyphosate]: the “resistance of plants containing the new EPSPS gene to the herbicide” value in [1] is listed as “obvious resistance”.

Turning to `Cc1nn(C)cc1C(=O)Oc1c(C(=O)c2ccc(C(F)(F)F)cc2S(C)(=O)=O)c(C)nn1C` [Shuangzuocaotong], the “phenotype of wild-type rice seedlings after application” value in test [2] (4 weeks after application) was “close to death”. In test [2] (5-7 days after application, spray tower), the “phenotype of wild-type control rice seedlings after application” value is on record as “began to show albino”. For the same compound, the “phenotype of HPPD doubling event strains after application” value was “all continued to remain green and grew normally” in test [3] (4 weeks after application); “all remained normally green” in test [3] (5-7 days after application). The “tolerance of HPPD gene-doubled strains to the herbicide” value in test [3] (setting [10]) is recorded as “significantly improved tolerance”. Besides, the “resistance of plants to the HPPD inhibitory herbicide” value in test [3] (T0 transformed seedlings, field dosage 4 g a.i./mu) is “up to 8 times the field dose”. The “phenotype of wild-type control rice seedlings” value in test [4] is listed as “almost all albino”. Further, in [5], the “phenotype of green T1 seedlings of HPPD doubling lines” value is “continued to remain green and grew normally”.

Take `COC(=O)[C@@H](C)O/N=C/c1cc(-n2c(=O)cc(C(F)(F)F)n(C)c2=O)c(F)cc1Cl` [compound 2081]: the “phenotype of wild-type control rice seedlings after application” value in [6] (3-5 days after application) was “began to wither from tip of leaf, necrotic spots appeared on the leaves, and the plants gradually withered”. The “phenotype of wild-type rice seedlings after application” value in test [6] (two weeks after application) is “died”. The “phenotype of most lines of the PPO1 inversion event after application” value in test [7] (3-5 days after application, 0.18, 0.4 and 0.6 g ai/mu) is on record as “maintained normal growth, the leaves had no obvious phytotoxicity”. Besides, the “tolerance of PPO1 inversion lines to the herbicide” value in test [7] (setting [10]) is “significantly improve the tolerance”. Moreover, the “phenotype of most inversion event strains after application” value in test [7] (two weeks after application, 0.18, 0.4 and 0.6 g ai/mu) was “continued to remain green and grew normally”. The results for the “phytotoxicity on wild-type control rice seedlings” value in test [8] (0.3 g a.i./mu) and in test [8] (0.6 g a.i./mu) were “obvious phytotoxicity” and “the plants died quickly”, respectively. For the same compound, the “phytotoxicity on wild-type control” value in [8] (0.6 and 0.9 g ai/mu) is reported as “substantially died off”. In [8] (1.2 g a.i./mu), the “phytotoxicity on wild-type control plants” value is listed as “all dead”. Moreover, the “phytotoxicity on QY2234/H5-851 T1 seedlings” value is “maintain normal growth” in test [9] (0.3 g a.i./mu); “most T1 seedlings could keep green and continue to grow” in [9] (0.6 and 0.9 g ai/mu); “some of the T1 seedlings could keep green and continue to grow” in test [9] (1.2 g a.i./mu).
